Experimental data as given in patent US20250085295A1, “METHODS FOR MEASURING INTERACTIONS BETWEEN PROTEINS COMPRISING AN FC PORTION AND PARTICLES” (NANOTEMPER TECHNOLOGIES GMBH, priority 2023, published 2025).

Key:
IgG antibody = details: literature DOI cited; read-out: affinity of Fc-binding peptide to IgG antibody; cited from earlier work
IgA antibody = details: literature DOI cited; read-out: affinity of Fc-binding peptide to IgA antibody; cited from earlier work
Trastuzumab [1] = test: TRIC signal at 670 nm, dose-response of fluorescent peptide tracer vs Trastuzumab; format: binding; details: 2.4 nM peptide, Trastuzumab dilution series, IR laser heating 5 s, FIGS. 3 and 4
Description: (§1) The fluorescent peptide tracer was dissolved in 100% DMSO to obtain stock solutions of 2.4 mM for FcIII and FcT. Subsequently, 16 or 24 point 1-to-1 dilution series of unlabeled Trastuzumab antibodies with stock concentrations of 825 µM were prepared leading to final assay concentrations of 2062.5 nM for Trastuzumab and a FCT and FcIII concentration of 2.4 nM. Samples were loaded into Dianthus 384-well plates (DI-P001A, NanoTemper Technologies) or polymer-coated borosilicate glass capillaries (Monolith NT.115 Premium Capillaries, MO-K025, NanoTemper Technologies). Measurements were taken with Nano Temper Software (MO.Control 2, DI.Control) by excitation at 591 nm and recording of fluorescence traces at 650 nm and 670 nm. For results showing TRIC results, simultaneous induction heat via an IR laser was induced and the thermophoretic behavior recorded for 5s.

Trastuzumab [2] = test: Spectral shift (SpS, 670/650 nm ratio) dose-response of fluorescent peptide tracer vs Trastuzumab; format: binding; details: for binding affinity of fluorescent peptide to Trastuzumab, spectral shift response (SpS): 2.4 nM peptide, Trastuzumab dilution series up to 2062.5 nM, excitation 591 nm, 650/670 nm, FIGS. 1 and 2
Description: as §1
To evaluate the importance of the right affinity for this labeling approach, also a fluorescent peptide tracer was designed based on previously published findings based on a combinatorial tetrapeptide library (Camperi et al., Biotechnol Lett (2003), 25:1545-1548). To this end, the tetrapeptide APAR, which was previously found to bind to Immunoglobulin G was synthesized with an N-terminal lysine to accommodate further conjugation with Cy5 dye. The resulting fluorescent peptide tracer Cy5-KAPAR (cf. SEQ ID NO: 9) was dissolved in 100% DMSO to obtain stock solutions of 4.96 mM. The stock solution was further diluted in PBS-P. Subsequently 24 point 1-to-1 dilution series of unlabeled Trastuzumab antibody with stock concentrations of 825 μM were prepared leading to final assay concentrations of 412 μM for Trastuzumab and a Cy5-KAPAR (cf. SEQ ID NO: 9) concentration of 2.5 nM. Samples were loaded into Dianthus 384-well plates (DI-P001A, NanoTemper Technologies). Measurements were taken with Nano Temper Software (DI.Control) by excitation at 591 nm and recording of fluorescence traces at 650 nm and 670 nm. […] Such affinities result in required assay concentrations of over 100 μM in ligand-binding assays, which can hardly be achieved due to antibody solubility and availability. Furthermore, only affinities lower than the used concentration of antibody could reliable be determined, severely limiting the approach.

[3] = biological target: T1, Her2/ERBB2 Protein, Human, Recombinant (ECD, His Tag) (Homo sapiens, UniProt P04626); test: Interaction of Her2 with labeled Trastuzumab in spectral shift (SpS); format: binding; details: 4 nM Trastuzumab, 2.4 nM tracer, Her2 up to 220 nM; FIGS. 5 and 7
T1 construct: Her2/ERBB2 Protein, Human, Recombinant (ECD, His Tag); His tag; purchased Sino Biological 10004-H08H
Description: (§2) The fluorescent peptide tracer was dissolved in 100% DMSO to obtain stock solutions of 2.4 mM for FcIII and FcT. Peptide tracers were mixed with 8 nM Trastuzumab and incubated for 15 min. Subsequently, 16 or 24 point 1-to-1 dilution series of Her2 were prepared and mixed 1:1 with prepared peptide: trastuzumab dilution, leading to final assay concentrations of 4 nM for Trastuzumab, 2.4 nM FcT and FcIII, and 220 nM as highest in-assay concentration of Her2. Samples were loaded into Dianthus 384-well plates (DI-P001A, NanoTemper Technologies) or polymer-coated borosilicate glass capillaries (Monolith NT.115 Premium Capillaries, MO-K025, NanoTemper Technologies). Measurements were taken with Nano Temper Software (MO.Control 2, DI.Control) by excitation at 591 nm and recording of fluorescence traces at 650 nm and 670 nm. For results showing TRIC results, simultaneous heat via an IR laser was induced and the thermophoretic behavior recorded for 5s.
(§3) For NHS labeling of Trastuzumab, NHS labeling kit 2nd generation (NanoTemper Technologies) was used. In short, Trastuzumab was exchanged into NHS labeling buffer and mixed with NHS-NTT dye. After incubation in the dark for 30 min, unreacted dye was separated using a B-column provided with the kit. Eluting fractions containing 2.5 µM labeled Trastuzumab were collected and stored at −80° C.

[4] = biological target: T1, Her2/ERBB2 Protein, Human, Recombinant (ECD, His Tag); test: Interaction of Her2 with labeled Trastuzumab in TRIC 670 nm; format: binding; details: 4 nM Trastuzumab, 2.4 nM tracer, Her2 up to 220 nM; FIGS. 6 and 8
Description: as §2, §3

[5] = Thermal unfolding analysis using Fc-peptide labeling (670/650 nm ratio, first derivative); format: physicochemical; details: free FcIII without antibody, heating 1° C./min; FIG. 14A, 14B
Description: The fluorescent peptide tracer was dissolved in 100% DMSO to obtain stock solutions of 2.4 mM for FcIII. […] Samples were loaded into capillaries, excited at 591 nm and fluorescence was recorded at 650 and 670 nm. Samples were heated a rate of 1° C./min while recording fluorescence signals.

## CDCAWHLGELVWCTC [Fc-III-4C]
IgG antibody
  Kd: 0.0025 µM

## DCAWHLGELVWCT [Fc-III]
IgG antibody
  Kd: 0.016 to 0.025 µM

## HQVCLSYRGRPVCFST
IgA antibody
  Kd: 0.072 µM

## KHRFNKD
IgG antibody
  Kd: 0.02 µM

## L-Pro DCAWHLGELVWCT D-Pro [FcBP2]
IgG antibody
  Kd: 0.0018 µM

## RRGW
IgG antibody
  Kd: 0.0005 µM

## [Cyc(2,12)]Cy5-DCAWHLGELVWCT-NH2 [FcIII]
Trastuzumab [1]
  binding affinity of fluorescent peptide to Trastuzumab, TRIC: Clear binding with nanomolar affinities
Trastuzumab [2]
  binding affinity of fluorescent peptide to Trastuzumab, spectral shift response (SpS): Clear binding with nanomolar affinities
[3]
  binding of Her2 to Trastuzumab labeled with the peptide tracer, spectral shift dose-response: clearly show the binding of Her2
[4]
  binding of Her2 to Trastuzumab labeled with the peptide tracer, TRIC signal dose-response: clearly show the binding of Her2
[5]
  thermal profile, unfolding events in the first derivative: no distinct unfolding events

## [Cyc(2,12)]NTTred-DCAWHLGELVWCT-OH [FcT]
Trastuzumab [1]
  binding affinity of fluorescent peptide to Trastuzumab, TRIC: Clear binding with nanomolar affinities
Trastuzumab [2]
  binding affinity of fluorescent peptide to Trastuzumab, spectral shift response (SpS): Clear binding with nanomolar affinities
[3]
  binding of Her2 to Trastuzumab labeled with the peptide tracer, spectral shift dose-response: clearly show the binding of Her2
[4]
  binding of Her2 to Trastuzumab labeled with the peptide tracer, TRIC signal dose-response: clearly show the binding of Her2

## low affinity fluorescent peptide tracer, tetrapeptide APAR with N-terminal lysine conjugated with Cy5 (cf. SEQ ID NO: 9) [Cy5-KAPAR, Cy5-KAPAR-OH]
Trastuzumab [2]; 2.5 nM Cy5-KAPAR, Trastuzumab up to 412 μM
  ratiometric change in the 670/650 nm fluorescence upon binding of Trastuzumab: large ratiometric change
Trastuzumab [2]; 2.5 nM Cy5-KAPAR, Trastuzumab up to 412 μM, spectral shift 670/650 nm, read-out: affinity to Trastuzumab (estimated, saturation not reached)
  Kd: > 60 µM
